Test results published in publication PMC9725750, “The clinical pharmacology of tafenoquine in the radical cure of Plasmodium vivax malaria: An individual patient data meta-analysis” (eLife, 2022).
Read-outs that look alike come from different tables or passages of the source.

Legend:
[1] = Population pharmacokinetic modelling of plasma tafenoquine (patients and healthy volunteers); type: in vivo, human; conditions: for Patient – MTT covariate / Patient – Vc/F covariate / Patient – Vp/F covariate: Malaria patients: 1 + Θ; for Vomit – F covariate: Vomiting: 1 + Θ; for Age – CL/F covariate: linear, 1 + Θ × (Age-35); for Vd/F: human, plasma, oral, read-out: Vc/F, apparent central volume of distribution; for IIV CL/F, inter-individual variability / IIV F, inter-individual variability / IIV MTT, inter-individual variability / IIV Q/F, inter-individual variability / IIV Vp/F, inter-individual variability / RUV, additive residual error: variance estimate
Excerpt: Tafenoquine pharmacokinetics have been described in detail previously ([Thakkar et al., 2018]). Tafenoquine is a slowly eliminated 8-aminoquinoline antimalarial drug with a terminal elimination half-life of around 15 days. The metabolites have not been well characterised. Tafenoquine pharmacokinetics have been characterised previously by a two-compartment pharmacokinetic (PK) model (i.e. bi-exponential decay model) with allometric scaling of clearance and volume parameters ([Thakkar et al., 2018]). We inspected visually all individual drug level profiles and excluded 10 concentrations from 8 patients which were substantial outliers. A total of 15 malaria patients vomited within one hour of drug administration. […] One patient was not re-dosed and had very low tafenoquine levels during follow-up. We removed this patient from all analyses as it is difficult to estimate the amount of drug ingested. For the remaining 14 patients who vomited and were re-dosed, time since dose was calculated as the time since the second dose (in some patients this was the next day). All available tafenoquine concentration measurements were transformed into their natural logarithms and characterised using nonlinear mixed-effects modelling in the software NONMEM v7.4 (Icon Development Solution, Ellicott City, MD). […] One-, two-, and three-compartment dispositional models were evaluated, as well as different absorption models (i.e. first-order absorption and a fixed number of transit absorption compartments). Inter-individual variability was implemented as an exponential function of all structural PK parameters. The first-order conditional estimation method with interactions (FOCE-I) and subroutine ADVAN5 TRANS1 were used throughout the study. Body weight was implemented as a fixed allometric function on clearance parameters (exponent of 0.75) and as a linear function on volume parameters (exponent of 1.0). Additional, biologically relevant, covariates (i.e. age, sex, vomiting, tafenoquine formulation and patient vs healthy volunteers) were evaluated on all PK parameters using a linearized stepwise addition (p<0.01) and backward elimination (p<0.001) covariate approach.
Potential model mis-specification and systematic errors were evaluated by basic goodness-of-fit diagnostics. Model robustness and parameter confidence intervals were evaluated by a sampling-important-resampling (SIR) procedure ([Dosne et al., 2017]). Predictive performance of the final model was illustrated by prediction-corrected visual predictive checks (n=2,000) ([Bergstrand et al., 2011]). The 5th, 50th, and 95th percentiles of the observed concentrations were overlaid with the 95% confidence intervals of each simulated percentile to detect model bias. Under the population mixed-effects model we estimated for each healthy volunteer and each patient in the three efficacy studies: (i) the area under the plasma concentration time curve ( AUC[0,∞ ); (ii) the maximum peak concentration ( Cmax ); and (iii) the terminal elimination half-life (t1/2). […] Details of the final model are given in Appendix 6.
For the terminal elimination half-life, multiple patients had estimated values greater than 30 days. On examination, the NONMEM model estimates of the terminal elimination half-life were not robust with respect to the model structure. In order to derive robust half-life estimates, we fit a robust (using a student- t likelihood, [Lange et al., 1989]) Bayesian hierarchical linear model to the observed log-concentrations post day 4 (terminal phase; random intercept and slope). […] The half-life is then defined as -log(2)/βi where βi is the individual slope estimate for patient i . Values below the lower limit of quantification were treated as left-censored observations with censoring value equal to log(2 ng/ml). The model included an interaction term between time and the log patient weight (clearance was associated with weight); and a dose (mg/kg) dependent intercept term. […]

blood MetHb = assay: Blood methaemoglobin (MetHb) concentration on day 7 by pulse CO-oximeter; type: in vivo, human
Excerpt: All patients in the phase 1 trial and the three efficacy trials had frequent blood MetHb measurements taken using non-invasive signal extraction pulse CO-oximeter handheld machines. For the three efficacy trials, we excluded measurements taken at or after recurrence of vivax malaria. Because erroneous readings from the handheld oximeters can occur, we inspected visually the longitudinal MetHb curves for each patient. […] All patients from this site were excluded from the MetHb analysis ( n =91), resulting in a total of 9632 MetHb measurements across 746 P. vivax infected patients and 72 healthy volunteers.

CYP2D6 = CYP2D6 activity score (poor vs normal/extensive metabolisers): association with recurrence and half-life; type: in vivo, human
Excerpt: CYP2D6 genotyping data were available for patients enrolled in DETECTIVE part 2 and GATHER. We mapped CYP2D6 diplotypes to an activity score using the standard scoring system ([Caudle et al., 2020]) (note that under the updated scoring system the *10 allele has a score of 0.25 instead of 0.5). The activity score cannot be used as a linear predictor (e.g. a score of 1 cannot be interpreted as twice the metabolic activity of a score of 0.5). For this reason, to assess association with recurrence, we dichotomised the activity scores into poor metabolisers (≤0.5) versus normal/extensive metabolisers (>0.5) ([Caudle et al., 2020]).

[2] = cited from earlier work
[3] = parameters: method as in Shanks et al., 2001; conditions: ref Shanks et al., 2001, cited from earlier work
[4] = population estimate (%RSE), typical healthy individual 70 kg, 35 years

COc1cc(C)c2c(Oc3cccc(C(F)(F)F)c3)c(OC)cc(NC(C)CCCN)c2n1 (stereo not shown) [tafenoquine]
CL/F, oral elimination clearance ([1]; SIR median (95% CI)): 3.14 (2.71–3.70) L/h
MTT, mean absorption transit time over 6 transit compartments ([1]; SIR median (95% CI)): 3.05 (2.30–3.87) h
Vp/F, apparent peripheral volume of distribution ([1]; SIR median (95% CI)): 318 (248–424) L
Patient – MTT covariate ([1]; SIR median (95% CI)): 0.929 (0.605–1.51)
Patient – Vc/F covariate ([1]; SIR median (95% CI)): –0.282 (-0.0784–-0.395)
Patient – Vp/F covariate ([1]; SIR median (95% CI)): 1.30 (0.670–1.88)
Vomit – F covariate ([1]; SIR median (95% CI)): 0.434 (0.315–0.608)
Age – CL/F covariate ([1]; SIR median (95% CI)): –0.00435 (-0.00206–-0.00589)
decrease in CL/F per 10 years of age increase from the median age of 35 years ([1]; covariate Age – CL/F, final model): 4.34%
lower central volume of distribution in patients compared to healthy volunteers ([1]; covariate Patient – Vc/F): 27.6%
higher total dose when 1st dose was vomited and re-administered ([1]; covariate Vomit – F, relative oral bioavailability): 44.7%
Vd/F ([1]; SIR median (95% CI)): 1360 L
Vd/F [1, 4]: 1330 L
Patient – MTT covariate ([1]; population estimate (%RSE)): 0.937 (24.7)
Patient – Vc/F covariate ([1]; population estimate (%RSE)): –0.276 (29.4)
Patient – Vp/F covariate ([1]; population estimate (%RSE)): 1.40 (21.6)
Vomit – F covariate ([1]; population estimate (%RSE)): 0.447 (16.3)
Age – CL/F covariate ([1]; population estimate (%RSE)): –0.00434 (23.4)
CL/F, oral elimination clearance [1, 4]: 3.14 (8.43) L/h
MTT, mean absorption transit time over 6 transit compartments [1, 4]: 3.14 (12.8) h
Vp/F, apparent peripheral volume of distribution [1, 4]: 311 (14.4) L
IIV CL/F, inter-individual variability ([1]; SIR median (95% CI)): 0.0349 (0.0193–0.0451)
IIV F, inter-individual variability ([1]; SIR median (95% CI)): 0.0870 (0.0559–0.120)
IIV MTT, inter-individual variability ([1]; SIR median (95% CI)): 0.0887 (0.0585–0.124)
IIV Q/F, inter-individual variability ([1]; SIR median (95% CI)): 0.156 (0.1000–0.226)
IIV Vp/F, inter-individual variability ([1]; SIR median (95% CI)): 0.0265 (0.0153–0.0400)
RUV, additive residual error ([1]; SIR median (95% CI)): 0.0240 (0.0170–0.0333)
IIV CL/F, inter-individual variability ([1]; population estimate (%RSE)): 0.0338 (18.8)
IIV F, inter-individual variability ([1]; population estimate (%RSE)): 0.0850 (19.2)
IIV MTT, inter-individual variability ([1]; population estimate (%RSE)): 0.0831 (21.0)
IIV Q/F, inter-individual variability ([1]; population estimate (%RSE)): 0.151 (20.5)
IIV Vp/F, inter-individual variability ([1]; population estimate (%RSE)): 0.0256 (25.3)
RUV, additive residual error ([1]; population estimate (%RSE)): 0.0225 (18.8)
increase in day 7 MetHb concentrations per additional mg/kg (blood MetHb; 95% CI 17% to 21%): 19%
lower day 7 methaemoglobinaemia in healthy volunteers compared to patients infected with P. vivax (blood MetHb; adjusted for mg/kg dose, 95% CI 0 to 34%, p=0.02): 15%
day of peak MetHb levels (blood MetHb; after single dose tafenoquine + chloroquine): ~7 days
OR for recurrence at 4 months, poor versus normal/extensive metabolisers (CYP2D6; CYP2D6 activity score ≤0.5 vs >0.5, 95% CI 0.4 to 2.2): 0.9
change in tafenoquine elimination half-life in poor versus normal/extensive metabolisers (CYP2D6; activity score ≤0.5, n=35 vs n=356, 95% CI –1.22 to 0.94): –0.15 days
route of elimination ([2]; ref Brueckner et al., 1998): eliminated via biliary excretion with enterohepatic recirculation, but is not eliminated in the urine
persistence of plasma concentrations above a plausible minimum inhibitory concentration for the asexual activity ([2]; ref Dow and Smith, 2017): up to three months
terminal elimination half-life ([2]; ref Thakkar et al., 2018): about 15 days
haemolytic outcome ([3]; female heterozygous for G6PD deficiency (A- variant), total dose 1200 mg over 3 days): severe haemolytic reaction
drop in haemoglobin ([3]; homozygous G6PD deficient female (A- variant), 1200 mg over 3 days, remained asymptomatic): ~3 g/dL
